The source of these data is patent US20130150399A1, “INHIBITORS OF THE UNFOLDED PROTEIN RESPONSE AND METHODS FOR THEIR USE” (The Board of Trustees of the Leland Stanford Junior …, priority 2006, published 2013).

One test has as its system Grp78. In words: Western immunoblot of Grp78, HT1080 cells. The note with it: irestatin 9389 2.5 μM, 16 hours (also 24 or 36 hours). It is filed as cell-based, human. The protocol:
(§1) Cells (2×10^6) were cultured in 10-cm dishes, collected using a cell scraper at 4° C., and lysed by addition of 150 μl cell lysis buffer [50 mM Tris pH 7.4, 150 mM NaCl, 10% glycerol, 0.5% Triton X-100. 0.5% NP-40, 2 mM Na3VO4, 20 mM beta-glycerophosphate, 10 mM NaF, 1 mM DTT, 1 mM PMSF). Lysates were centrifuged for 5 min at 10,000×g, and proteins (˜40 μg) were resolved by SDS-PAGE followed by semi-dry transfer to nitrocellulose membranes. Membranes were blocked in TBS-5% milk supplemented with 0.1% Tween-20. The blots were then probed overnight with relevant antibodies, washed, and incubated for 2 hours with species-specific secondary antibodies conjugated to horseradish peroxidase. After washing in block solution, immunoreactive material was detected by enhanced chemiluminescence (SuperSignal West Dura Extended, Pierce, Inc., Rockville, Ill.).
(§2) HT1080 cells were exposed to DMSO vehicle (lane 1), irestatin 9389 (2.5 μM; lane 2) for 16 hours or Tm (5 μg/ml; lane 3) for 8 hours. Following treatments, cells were harvested, lysed, and analyzed by immunoblotting using anti-Grp78 antibody (top) or anti-actin (bottom) as a loading control. […] Cell lysates were analyzed by Western immunoblotting using anti-IRE1α (bottom) or anti-phospho-IRE1α antibodies (top). […] Lysates were analyzed by Western blot using antisera specific for phospho-JNK1 (top) or total JNK1 (bottom). […]
(In western blotting, separated proteins are transferred to a membrane and probed.)

In a further test the test system is IRE1α. The test is described as follows: Western immunoblot of total IRE1α, HT1080 cells. It is filed as cell-based, human. The note with it: 2.5 μM, 16 hours. The protocol: as §1, §2
The next test deals with HT1080 tumor xenografts. In words: Immunohistochemical analysis of tumor xenografts (pimonidazole, cleaved caspase-3). The test is classed as in vivo, mice. The note with it: three doses, 50 mg/kg. The protocol:
Tumor-bearing mice were injected i.p. with hypoxyprobe (50 mg/kg) 1 hour prior to sacrifice. Mice were euthanised under anesthesia by cervical dislocation, and tumors were surgically resected, embedded in OCT compound (Sakura Tissue Tek), and frozen at −80° C. Tumors were sectioned at 8 μm, fixed in 4% paraformaldehyde, and blocked in PBS-4% BSA. Tissue sections were incubated overnight in block solution containing antisera specific for hypoxyprobe (1:250) and cleaved caspase-3 (1:400). Slides were washed three times with block solution and incubated for 2 hours at room temperature with anti-mouse Alexa 488 or anti-rabbit Alexa 594 (Invitrogen, San Diego, Calif.). Slides were washed five times in block solution, and coverslips mounted with Permount supplemented with DAPI.
Immunohistochemical analysis of tumor xenografts. […] D. Quantification of tumor immunohistochemistry. At least 8 randomly chosen fields (>300 cells/field) per tumor were scored for pimonidazole and cleaved caspase-3 staining. A minimum of 3 tumors (250-300 mm^3 at harvest) were analyzed per treatment group. […]
We further examined tumors from control and irestatin-treated mice for differences in cell survival. […] The increase in apoptosis was most pronounced in hypoxic tissue regions of tumors, as determined by co-immunoreactivity for pimonidazole adducts (FIG. 14C, bottom panel). […]

Consider `Cc1csc(NC(=O)CSc2nc3c(c(C(F)(F)F)c2C#N)CCC3)n1` [Compound 9389], for which the Grp78 levels entry in the test with Grp78 is on record as “no effect on Grp78 levels”. In addition, the “total level of IRE1α” value with IRE1α is recorded as “no significant changes in the total level of IRE1α”. Moreover, the “cleaved caspase-3 in tumors relative to vehicle” value in the test with HT1080 tumor xenografts is recorded as “significant increase in cleaved caspase-3”. Further, the “apoptotic fraction of hypoxic cells in tumors” value with HT1080 tumor xenografts (cleaved caspase-3 in pimonidazole-positive cells) is about 45%.
